Results from US11649245B2, “Cyclopropylamine compound as LSD1 inhibitor and use thereof” (HELIOEAST PHARMACEUTICAL CO., LTD., priority 2018, dated 2023).
Counter-ions that a name gives are not always drawn. Like-named read-outs stand apart in the source and are kept apart here.

How the values were obtained:
[1] = molecular target: human LSD1 (Homo sapiens, UniProt O60341); assay: In vitro enzyme activity screening against LSD1 (HRP/Amplex Red fluorescence coupling enzyme method); type: biochemical; settings: human LSD1, histone H3K4me peptide substrate 20 μM
Description: The purpose of this test was to detect the in vitro inhibitory activity of the compounds against LSD1. The enzyme used in this test was human LSD1, the standard substrate was histone H3K4me peptide (20 μM), the fluorescence coupling enzyme method was used to determine the activity of the compound by combining horseradish peroxidase (HRP) and fluorescent reagent Amplex Red to detect the H2O2 generation as a result of the reaction of LSD1. Compounds were tested in 10-dose IC50 mode with a 3-fold serial dilution starting at 10 μM. The enzyme and […] to start the reaction. Fluorescence detector: Envision, excitation wavelength: Ex/Em=530/590 […]

[2] = system: NCI-H1417 cells; assay: Antiproliferation activity on NCI-H1417 cells (CellTiter-Glo, 10 days); type: cell-based, human; settings: incubated for 10 days
Description: Experimental purpose: to detect the antiproliferation activity of the compounds on NCI-H1417 cells.
Experimental materials: RPMI 1640 culture medium, fetal bovine serum, Promega CellTiter-Glo reagent. NCI-H1417 cell line purchased from ATCC. Envision multi-label reader (PerkinElmer).
Experimental method: the compounds were dissolved to 10 mM, then the compounds were diluted 5 times with DMSO in a compound plate, the compounds were diluted 3-fold with Bravo from a starting concentration of 2 mM to the 10th concentration, 250 nL of the solutions were transferred to the upper and lower duplicate wells on a blank 384 cell plate by Echo transfer plate, cell suspension of per well/1000 cells/50 μL was added to the transferred 250 nL DMSO/compound, the compounds were diluted 200-fold, i.e., the initial action concentration was 10 μM. The cell plate was placed in a carbon dioxide incubator and incubated for 10 days. 25 μL of Promega CellTiter-Glo reagent was added to each well on the cell plate and was shaken at room temperature for 10 minutes to stabilize the luminescence signal. Readings were performed by PerkinElmer Envision multi-label analyzer.
Data analysis: the equation (Max-Ratio)/(Max-Min)*100% was used to convert the original data into the inhibition rate, the value of IC50 can be obtained by curve fitting of four-parameters (the 205 mode in XLFITS, iDBS).

[3] = system: HL60 cells; assay: Antiproliferation activity on HL60 cells (CellTiter-Glo, 6 days); type: cell-based; settings: incubated for 6 days
Description: Experimental purpose: to detect the antiproliferation activity of the compound to be tested on HL60 cells.
(§1) Experimental materials: RPMI-1640 culture medium, fetal bovine serum, penicillin/streptomycin antibiotics purchased from Wisent. CellTiter-Glo (chemiluminescent cell viability assay reagent) reagents purchased from Promega. HL60 cell line purchased from Nanjing Cobioer Co., Ltd. Nivo multi-label reader (PerkinElmer).
Experimental method: HL60 cells were planted in a white 384-well plate, 40 μL of cell suspension per well, 600 HL60 cells were contained therein. The cell plate was placed in a carbon dioxide incubator for overnight culture. The compounds to be tested were diluted 5-fold with a pipet until the 10th concentration, i.e., diluted from 2 mM to 1.024 nM, double duplicate well experiment was set. 78 μL of the culture medium was added to an intermediate plate, and then 2 μL per well of the serially diluted compounds were transferred to the corresponding positions on the intermediate plate, after mixing, 10 μL per well was transferred to the cell plate. The cell plate was incubated in a carbon dioxide incubator for 6 days. Another cell plate was prepared and the signal value on the day of dosing was read as the maximum value (Max value in the equation below) to participate in the data analysis. 20 μL of chemiluminescent cell viability assay reagent was added to each well of this cell plate, which was incubated at room temperature for 10 minutes to stabilize the luminescence signal. The multi-label reader was used for reading.
(§2) Data analysis: the equation (Sample-Min)/(Max-Min)*100% was used to convert the original data into the inhibition rate, the IC50 value can be obtained by curve fitting of four-parameters (“log(inhibitor) vs. response—Variable slope” mode in GraphPad Prism)).

[4] = system: MV-4-11 cells; assay: Antiproliferation activity on MV-4-11 cells (CellTiter-Glo, 6 days); type: cell-based; settings: incubated for 6 days
Description: Experimental purpose: to detect the antiproliferation activity of the compound to be tested on MV-4-11 cells.
as §1, with “IMDM” for “RPMI-1640”, “MV-4-11” for “HL60”, “line was” for “line”, “Multi-Marker Analyzer” for “multi-label reader”
Experimental method: MV-4-11 cells were planted in a white 96-well plate, 80 μL of cell suspension per well, which contained 6000 MV-4-11 cells. The cell plate was placed in a carbon dioxide incubator for overnight culture.
The compounds to be tested were diluted 5-fold with a pipet until the 8th concentration, i.e., diluted from 2 mM to 25.6 nM, double duplicate well experiment was set. 78 μL of the culture medium was added to an intermediate plate, and then 2 μL per well of the serially diluted compounds were transferred to the corresponding positions on the intermediate plate, after mixing, 20 μL per well was transferred to the cell plate. The cell plate was incubated in a carbon dioxide incubator for 6 days. Another cell plate was prepared and the signal value on the day of dosing was read as the maximum value (Max value in the equation below) to participate in the data analysis. 25 μL of the chemiluminescent cell viability assay reagent was added to each well of this cell plate, which was incubated at room temperature for 10 minutes to stabilize the luminescence signal. The multi-label analyzer was used for reading.
as §2

[5] = In vivo pharmacokinetics in CD-1 mice; settings: male CD-1 mice; for half-life / clearance / Vd: iv; for half-life / clearance / Vd / Half-life T1/2 (IV): 1 mg/kg; for half-life / Half-life T1/2 (IV): IV 1 mg/kg; for half-life: read-out: Half-life T1/2 (IV) (converted); for clearance / Vd / Cmax / Clearance CL / Volumes of distribution Vdss: study doses 1 mg/kg intravenous, 2 mg/kg oral; for clearance: read-out: Clearance CL; for Vd: read-out: Volumes of distribution Vdss; for Cmax: route not given, read-out: Max concentration Cmax; for AUC(0-t) / bioavailability: po; for AUC(0-t) / bioavailability / The area under the plasma concentration-time curve AUC0-last PO: 2 mg/kg; for AUC(0-t) / The area under the plasma concentration-time curve AUC0-last PO: PO 2 mg/kg; for AUC(0-t): read-out: The area under the plasma concentration-time curve AUC0-last PO; for bioavailability / Bioavailability F: oral 2 mg/kg vs intravenous 1 mg/kg; for bioavailability: read-out: Bioavailability F
Description: CD-1 mice (male, 7-9 weeks old, Shanghai Slac)
The rodent pharmacokinetic characteristics after intravenous injection and oral administration of the compounds were tested by standard protocols, in the experiment, the candidate compounds were formulated into clear solutions and administrated to mice via a single intravenous injection and oral administration. The vehicle for intravenous injection and oral administration was a mixed solution of 10% of dimethyl sulfoxide and 90% of 10% hydroxypropyl β cyclodextrin. This project used four male CD-1 mice, two mice were administered intravenously, with a dose of 1 mg/kg, and plasma samples were collected at 0 hour (before administration) and 0.0833, 0.25, 0.5, 1, 2, 4, 8, 24 hours after administration. The other two mice were orally administered by gavage, with a dose of 2 mg/kg, plasma samples were collected at 0 hour (before administration) and 0.25, 0.5, 1, 2, 4, 8, 24 hours after administration, whole blood samples were collected within 24 hours, which were centrifuged at 3000 g for 15 minutes, and the supernatants were separated to obtain plasma samples, 4 times volume of acetonitrile solutions containing internal standard were added to precipitate the protein, the mixtures were centrifuged to obtain the supernatants, the supernatants were added with water of equal volume and centrifuged again to take the supernatant for injection, and the blood drug concentration was quantitatively analyzed by the LC-MS/MS analysis method, and pharmacokinetic parameters were calculated, such as max concentration (Cmax), clearance (CL), half-life (T1/2), volumes of distribution (Vdss), the area under the plasma concentration-time curve (AUC0-last), bioavailability (F) etc.

**Q.** For `O=C(O)c1ccc(CN2CCC3(CC2)CC(N[C@@H]2C[C@H]2c2ccccc2)CO3)cn1` (stereo partly shown) [Hydrochloride of the compound 20], which IC50 [1] is on record?
**A.** 242 nM

**Q.** And the IC50 ([2]; Homo sapiens, NCI-H1417, 240 h)?
**A.** 3.99 nM

**Q.** And the IC50 ([3]; Homo sapiens, HL-60, 144 h)?
**A.** 8.99 nM

**Q.** What about the IC50 ([4]; Homo sapiens, MV4-11, 144 h) of the same compound?
**A.** 9.56 nM

**Q.** And the half-life ([5]; male, CD-1, mouse, plasma)?
**A.** 54.3 min

**Q.** What about the clearance ([5]; male, CD-1, mouse, plasma) of the same compound?
**A.** 19.7 mL/min/kg

**Q.** And the Vd ([5]; male, CD-1, mouse, plasma)?
**A.** 0.752 L/kg

**Q.** And the Cmax ([5]; male, CD-1, mouse, plasma)?
**A.** 714 nM

**Q.** And the AUC(0-t) ([5]; male, CD-1, mouse, plasma)?
**A.** 1.34 µM·h

**Q.** What about the bioavailability ([5]; male, CD-1, mouse, plasma) of the same compound?
**A.** 29%

**Q.** For `O=C(O)c1ccc(CN2CCC3(CC2)CC(N[C@@H]2C[C@H]2c2ccccc2)CO3)cc1` (stereo partly shown) [Hydrochloride of the compound 15], which IC50 [1] is on record?
**A.** 353 nM

**Q.** And the IC50 [2]?
**A.** 13.1 nM

**Q.** What about the IC50 [3] of the same compound?
**A.** 13.8 nM

**Q.** And the IC50 [4]?
**A.** 13.2 nM

**Q.** And the “Half-life T1/2 (IV)” value [5]?
**A.** 29.4 min

**Q.** And the “The area under the plasma concentration-time curve AUC0-last PO” value [5]?
**A.** 0.765 µM·h

**Q.** And the “Bioavailability F” value [5]?
**A.** 39.1%

**Q.** And the “Clearance CL” value [5]?
**A.** 41.8 mL/min/kg

**Q.** And the “Volumes of distribution Vdss” value [5]?
**A.** 0.835 L/kg

**Q.** And the Cmax [5]?
**A.** 919 nM

**Q.** Which results are given for `NC1(C(=O)N2CCC3(CC2)CC(N[C@@H]2C[C@H]2c2ccccc2)CO3)CC1` (stereo partly shown) [Hydrochloride of the compound 34]?
**A.** IC50 [1]: 38.4 nM; IC50 ([2]; Homo sapiens, NCI-H1417, 240 h): 4.38 nM; IC50 ([3]; Homo sapiens, HL-60, 144 h): 1.92 nM; IC50 ([4]; Homo sapiens, MV4-11, 144 h): 1.37 nM; half-life ([5]; male, CD-1, mouse, plasma): 83.4 min; clearance ([5]; male, CD-1, mouse, plasma): 25.3 mL/min/kg; Vd ([5]; male, CD-1, mouse, plasma): 2.09 L/kg; Cmax ([5]; male, CD-1, mouse, plasma): 1150 nM; AUC(0-t) ([5]; male, CD-1, mouse, plasma): 2.14 µM·h; bioavailability ([5]; male, CD-1, mouse, plasma): 58.3%

**Q.** For `O=C(O)c1ccc(CN2CCC3(CC2)CC(N[C@@H]2C[C@H]2c2ccccc2)CO3)cc1` (stereo partly shown) [Hydrochloride of the compound 16], which IC50 [1] is on record?
**A.** 262 nM

**Q.** What about the IC50 ([2]; Homo sapiens, NCI-H1417, 240 h) of the same compound?
**A.** 12.1 nM

**Q.** What about the IC50 ([3]; Homo sapiens, HL-60, 144 h) of the same compound?
**A.** 8.46 nM

**Q.** And the IC50 [4]?
**A.** 13.7 nM

**Q.** And the “Half-life T1/2 (IV)” value [5]?
**A.** 34.7 min

**Q.** What about the “The area under the plasma concentration-time curve AUC0-last PO” value [5] of the same compound?
**A.** 0.891 µM·h

**Q.** And the “Bioavailability F” value [5]?
**A.** 36.9%

**Q.** And the “Clearance CL” value [5]?
**A.** 33.8 mL/min/kg

**Q.** What about the “Volumes of distribution Vdss” value [5] of the same compound?
**A.** 0.88 L/kg

**Q.** And the Cmax [5]?
**A.** 860 nM
